Columns and labels:
[1] = system: foxtail, giant; assay: Test A preemergence; type: in vivo, Setaria faberii; details: 0 to 100 scale (0 no effect, 100 complete control)
In short: (§1)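 Test chemicals in a non-phytotoxic solvent with surfactant were applied as a directed soil spray preemergence to seeds sown in loam/sand. Postemergence sprays went to plants 2–10 cm tall at the one- to two-leaf stage. A dash means no result.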

[2] = system: pigweed; assay: Test A preemergence; type: in vivo, Amaranthus retroflexus; details: 0 to 100 scale (0 no effect, 100 complete control)
In short: as §1

[3] = system: rice; assay: Test B flooded paddy test; type: in vivo, Oryza sativa; details: 250 g ai/ha, applied to paddy water at 2-leaf stage, visual rating after 13 to 15 d, scale 0 (no effect) to 100 (complete control)
In short: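 Pots were flooded to 3 cm above the soil at treatment, and compounds were applied directly into the paddy water. That depth was held throughout. After 13 to 15 d in a greenhouse, plants were rated visually against untreated controls.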

[4] = system: blackgrass; assay: Test C postemergence; type: in vivo, Alopecurus myosuroides
In short: (§2)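 Pre: seeded into loam/sand, sprayed same time. Post: plants in peat moss–vermiculite mix with starter nutrients and dolomitic limestone, treated at 1- to 4-leaf stage (2 to 18 cm). Formulation: non-phytotoxic solvent blend plus surfactant.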

[5] = system: wheat (winter wheat); assay: Test C postemergence; type: in vivo, Triticum aestivum
In short: as §2

[6] = system: galium; assay: Test C postemergence; type: in vivo, Galium aparine
In short: as §2

[7] = system: johnsongrass; assay: Test C postemergence; type: in vivo, Sorghum halepense
In short: as §2

[8] = system: lambsquarters; assay: Test C postemergence; type: in vivo, Chenopodium album
In short: as §2

[9] = system: pigweed; assay: Test C postemergence; type: in vivo, Amaranthus retroflexus
In short: as §2

[10] = system: soybean; assay: Test C postemergence; type: in vivo, Glycine max
In short: as §2

[11] = system: chickweed; assay: Test C postemergence; type: in vivo, Stellaria media
In short: as §2

[12] = system: oat, wild; assay: Test C postemergence; type: in vivo, Avena fatua
In short: as §2

[13] = system: ryegrass, Ital.; assay: Test D preemergence; type: in vivo, Lolium multiflorum; details: for Plant response rating: Ryegrass, Ital.: scale 0 to 100
Description: Seeds of plant species selected from bluegrass (annual bluegrass, Poa annua), blackgrass (Alopecurus myosuroides), canarygrass (Phalaris minor), chickweed (common chickweed, Stellaria media), galium (catchweed bedstraw, Galium aparine), bromegrass, down (downy bromegrass, Bromus tectorum), Russian thistle (Salsola kali), field poppy (Papaver rhoeas), field violet (Viola arvensis), foxtail, green (green foxtail, Setaria viridis), deadnettle (henbit deadnettle, Lamium amplexicaule), ryegrass, Ital. (Italian ryegrass, Lolium multiflorum), kochia (Kochia scoparia), lambsquarters (Chenopodium album), oilseed rape (Brassica napus), pigweed (Amaranthus retroflexus), chamomile (scentless chamomile, Matricaria inodora), speedwell (bird's-eye speedwell, Veronica persica), barley, spring (spring barley, Hordeum vulgare), wheat, spring (spring wheat, Triticum aestivum), buckwheat, wild (wild buckwheat, Polygonum convolvulus), wild mustard (Sinapis arvensis), oat, wild (wild oat, Avena fatua), radish, wild (wild radish, Raphanus raphanistrum), […]), barley, winter (winter barley, Hordeum vulgare), and wheat, winter (winter wheat, Triticum aestivum) were planted into a silt loam soil and treated preemergence with test chemicals formulated in a non-phytotoxic solvent mixture which included a surfactant. At the same time, these species were planted in pots containing Sunshine Redi-Earth® planting medium comprising spaghnum peat moss, vermiculite, starter nutrients and dolomitic limestone and treated with postemergence applications of the test chemicals formulated in the same manner. Plants ranged in height from 2 to 18 cm (1- to 4-leaf stage). Treated plants and controls were maintained in a controlled growth environment for 14 to 21 d after which time all species were compared to controls and visually evaluated. […] A dash (-) response means no test result.

In the case of `FC(F)(F)COc1nc(-c2ccccc2)nn1Cc1ccnc(C(F)(F)F)c1` [Compound 24], the “Plant response rating, Foxtail, Giant” value ([1]; 125 g ai/ha) is reported as 100, the “Plant response rating, Foxtail, Giant” value ([1]; 500 g ai/ha, approx. 10 d) is reported as 100 and the “Plant response rating, Pigweed” value ([2]; 125 g ai/ha) is reported as 100. For the same compound, the “Plant response rating, Pigweed” value ([2]; 500 g ai/ha, approx. 10 d) was 100, the “Plant response rating, Rice, Flood” value [3] was 0 and the “Plant response rating (scale of 0 to 100 where 0 is no effect and 100 is complete control)” value ([4]; 31 g ai/ha) was 5. For the same compound, the “Plant response rating (scale of 0 to 100 where 0 is no effect and 100 is complete control)” value ([4]; 62 g ai/ha) was 5, the “Plant response rating (scale of 0 to 100 where 0 is no effect and 100 is complete control)” value ([4]; 125 g ai/ha) was 35 and the “Plant response rating (scale of 0 to 100 where 0 is no effect and 100 is complete control)” value ([4]; 250 g ai/ha) was 35. For the same compound, the “Plant response rating (scale of 0 to 100 where 0 is no effect and 100 is complete control)” value ([5]; 31 g ai/ha) was 5, the “Plant response rating (scale of 0 to 100 where 0 is no effect and 100 is complete control)” value ([5]; 62 g ai/ha) was 5 and the “Plant response rating (scale of 0 to 100 where 0 is no effect and 100 is complete control)” value ([5]; 125 g ai/ha) was 5. For the same compound, the “Plant response rating (scale of 0 to 100 where 0 is no effect and 100 is complete control)” value ([5]; 250 g ai/ha) was 5, the “Plant response rating (scale of 0 to 100 where 0 is no effect and 100 is complete control)” value ([6]; 31 g ai/ha) was 70 and the “Plant response rating (scale of 0 to 100 where 0 is no effect and 100 is complete control)” value ([6]; 62 g ai/ha) was 80. For the same compound, the “Plant response rating (scale of 0 to 100 where 0 is no effect and 100 is complete control)” value ([6]; 125 g ai/ha) was 80, the “Plant response rating (scale of 0 to 100 where 0 is no effect and 100 is complete control)” value ([6]; 250 g ai/ha) was 95 and the “Plant response rating (scale of 0 to 100 where 0 is no effect and 100 is complete control)” value ([7]; 31 g ai/ha) was 10. The “Plant response rating (scale of 0 to 100 where 0 is no effect and 100 is complete control)” value ([7]; 62 g ai/ha) was 20, the “Plant response rating (scale of 0 to 100 where 0 is no effect and 100 is complete control)” value ([7]; 125 g ai/ha) was 10 and the “Plant response rating (scale of 0 to 100 where 0 is no effect and 100 is complete control)” value ([7]; 250 g ai/ha) was 20. The “Plant response rating (scale of 0 to 100 where 0 is no effect and 100 is complete control)” value ([8]; 31 g ai/ha) was 100, the “Plant response rating (scale of 0 to 100 where 0 is no effect and 100 is complete control)” value ([8]; 62 g ai/ha) was 100 and the “Plant response rating (scale of 0 to 100 where 0 is no effect and 100 is complete control)” value ([8]; 125 g ai/ha) was 100. For the same compound, the “Plant response rating (scale of 0 to 100 where 0 is no effect and 100 is complete control)” value ([8]; 250 g ai/ha) was 100, the “Plant response rating (scale of 0 to 100 where 0 is no effect and 100 is complete control)” value ([9]; 31 g ai/ha) was 100 and the “Plant response rating (scale of 0 to 100 where 0 is no effect and 100 is complete control)” value ([9]; 62 g ai/ha) was 100. The “Plant response rating (scale of 0 to 100 where 0 is no effect and 100 is complete control)” value ([9]; 125 g ai/ha) was 100, the “Plant response rating (scale of 0 to 100 where 0 is no effect and 100 is complete control)” value ([9]; 250 g ai/ha) was 100 and the “Plant response rating (scale of 0 to 100 where 0 is no effect and 100 is complete control)” value ([10]; 31 g ai/ha) was 55. The “Plant response rating (scale of 0 to 100 where 0 is no effect and 100 is complete control)” value ([10]; 62 g ai/ha) was 40, the “Plant response rating (scale of 0 to 100 where 0 is no effect and 100 is complete control)” value ([10]; 125 g ai/ha) was 55 and the “Plant response rating (scale of 0 to 100 where 0 is no effect and 100 is complete control)” value ([10]; 250 g ai/ha) was 40. For the same compound, the “Plant response rating (scale of 0 to 100 where 0 is no effect and 100 is complete control)” value ([11]; 31 g ai/ha) was 55, the “Plant response rating (scale of 0 to 100 where 0 is no effect and 100 is complete control)” value ([11]; 62 g ai/ha) was 80 and the “Plant response rating (scale of 0 to 100 where 0 is no effect and 100 is complete control)” value ([11]; 125 g ai/ha) was 65. The “Plant response rating (scale of 0 to 100 where 0 is no effect and 100 is complete control)” value ([11]; 250 g ai/ha) was 85, the “Plant response rating (scale of 0 to 100 where 0 is no effect and 100 is complete control)” value ([12]; 31 g ai/ha) was 15 and the “Plant response rating (scale of 0 to 100 where 0 is no effect and 100 is complete control)” value ([12]; 62 g ai/ha) was 30. The “Plant response rating (scale of 0 to 100 where 0 is no effect and 100 is complete control)” value ([12]; 125 g ai/ha) was 20, the “Plant response rating (scale of 0 to 100 where 0 is no effect and 100 is complete control)” value ([12]; 250 g ai/ha) was 35 and the “Plant response rating (0 to 100), Ryegrass, Ital.” value ([13]; 16 g ai/ha, 0 is no effect, 100 is complete control) was 40. The “Plant response rating: Ryegrass, Ital.” value ([13]; 62 g ai/ha) was 40 and the “Plant response rating: Ryegrass, Ital.” value ([13]; 125 g ai/ha) was 45.

— US10681909B2, “Herbicidal triazoles” (FMC Corporation, priority 2014, dated 2020)
